Legend:
Micrococcus luteus = experiment: Filter disc bioassay on agar plates seeded with Micrococcus luteus; assay type: cell-based; conditions: for Zone Size: agar plate
Procedure: Samples of 2-carboxymethyl-5-hydroxy-1,2-oxazin-3-one and penicillin were applied to a filter disc in the amounts indicated in Table 1, below. The discs were applied to agar plates seeded with Micrococcus luteus, and the plates were incubated over night at 37° C.
Samples of 2-[2-carboxypropyl]-5-hydroxy-1,2-oxazin-3-one and desacetoxycephalosporin G were applied to a filter disc in the amounts indicated in Table 2, below. The discs were applied to agar plates seeded with Micrococcus luteus, and the plates were incubated overnight at 37° C.

CC1(C)S[C@@H]2[C@H](NC(=O)Cc3ccccc3)C(=O)N2[C@H]1C(=O)O [Penicillin G, reference compound]
Zone Size (Micrococcus luteus; 0.1 micrograms on filter disc, incubated over night at 37° C.): 1.6 cm

C[C@H](C(=O)OC(C)(C)C)N1OC[C@@H](O)[C@@H](O)C1=O [8b, (αR,4R,5R)-2-(α-tert-Butoxycarbonylethyl)-4,5-dihydroxy-1,2-oxazinan-3-one]
melting point: 93 to 94 °C

CC(CN1OC=C(O)CC1=O)C(=O)O (stereo not drawn) [2-[2-carboxypropyl]-5-hydroxy-1,2-oxazin-3-one]
Zone Size (Micrococcus luteus; 12.0 micrograms on filter disc, incubated overnight at 37° C.): 2.0 cm | antibacterial activity, times the activity of 2-carboxymethyl-5-hydroxy-1,2-oxazin-3-one (Micrococcus luteus; relative to 2-carboxymethyl-5-hydroxy-1,2-oxazin-3-one, from Tables 1 and 2): approximately 50 times

O=C(O)CN1OC=C(O)CC1=O [2-carboxymethyl-5-hydroxy-1,2-oxazin-3-one]
Zone Size (Micrococcus luteus; 100 micrograms on filter disc, incubated over night at 37° C.): 1.1 cm | Zone Size (Micrococcus luteus; 1000 micrograms on filter disc, incubated over night at 37° C.): 2.0 cm | antibacterial activity (in words) (Micrococcus luteus; judged from Tables 1 and 2): weak antibacterial activity | antibacterial activity, times less than that of penicillin (Micrococcus luteus; relative to penicillin, from Tables 1 and 2): at least 1000 times

CC1=C(C(=O)O)N2C(=O)[C@@H](NC(=O)Cc3ccccc3)[C@H]2SC1 [desacetoxycephalosporin G, reference compound]
Zone Size (Micrococcus luteus; 2.5 micrograms on filter disc, incubated overnight at 37° C.): 2.5 cm

Source: US6861416B2, “Oxazinones and methods for their use and synthesis” (Chirologix Pharmaceuticals, Inc., priority 2001, dated 2005)
